Assay results: PMC12196476, “New Nitrogen-, Oxygen-, and Sulfur-Containing Heterocyclic Compounds as Anti-Colon Cancer Agents: Synthesis, Multitargeted Evaluations, Molecular Docking Simulations and ADMET Predictions” (Pharmaceuticals, 2025)

Key:
[1] = molecular target: recombinant human LDHA protein (Homo sapiens, UniProt P00338); test: In vitro LDHA inhibitory assay (NADH consumption); format: biochemical; details: for inhibition at 100 µg/mL: three replicates, read-out: Mean Inhibition Percent ± SD, LDHA
From the text: The LDHA inhibitory efficiencies were investigated on Spectramax M2 spectrofluorometer via measuring the amounts of the consumed NADH^40 using an NAD^+/NADH quantification kit. […]
S3.2.3. In vitro LDHA inhibitory assay.
The LDHA inhibitory activity of the test compounds was investigated using Spectramax M2
spectrofluorometer by measuring the amounts of the consumed NADH [42] employing
NAD+/NADH quantification kit. Briefly, the assay medium containing various concentrations of
each test compound (50, 100, 200 and 300 μg/mL) was incubated in assay medium composed of 20
mM of HEPES-K+ buffer (pH 7.2), 20 μM of NADH, 2 mM of pyruvate and 10 ng of purified
recombinant human LDHA protein for 10 min utes. The activity of LDHA would result in reduction
of pyruvate into lactate with concomitant oxidation of NADH to NAD +. Since NADH (reduced
LDHA, could be inversely quantified by monitoring the change in the intensity of the fluorescence
at 340 nm over a 10-minute period. The rate of the fluorescence change (slope) in treated samples
was compared to that obtained from negative control experiment (100 % enzymatic activity) to
determine the percentage of inhibition. The IC50 value—defined as the compound concentration
required to reduce the luminescence by 50%, compared to untreated control wells—was
determined for each compound from the corresponding dose–response curve generated by
plotting LDHA inhibition (%) against compound concentration.
was used as the reference LDHA inhibitor. […]

[2] = DPPH radical scavenging assay; details: three independent experiments; read-out: Mean IC50 (mM) for initial DPPH radicals ± SD
Method: The antioxidant activities of the studied compounds were assessed using the 1,1-diphenyl-2-picrylhydrazyl (DPPH) radical scavenging method as detailed by Bersuder et al.. The results were expressed as IC50 (mM)—the concentration of the test compound required to neutralize 50% of DPPH radicals.
The antioxidant efficiencies of target compounds were determined using the 1,1-diphenyl-2-picrylhydrazyl (DPPH) radical scavenging method as detailed by Bersuder et al.. […]
S3.2. Evaluation of Biological Activities.
S3.2.1. In vitro DPPH radical scavenging assay.
The antioxidant efficiencies of compounds—3a−e, 8, 9a−c, 13, 14, 17, 18a−h, 20, 22, 23, and 25—were
determined using the 1,1-diphenyl-2-picrylhydrazyl (DPPH) radical scavenging method as
detailed by Bersuder et al.. Fundamentally, the purple color of the stabilized DPPH radical
fades in the presence of an antioxidant, thus, the change of absorbance can be followed
spectrophotometrically at 519 nm. In the assay, equal volumes (0.5 mL) of DPPH ethanolic solution
and each compound (0-2 mg/mL in DMSO) or butylated hydroxytoluene (BHT) as the reference
were mixed well by shaking. The negative control consisted of the same amount of DMSO and
DPPH solution. After, incubation all mixtures at room temperature in the dark for one hour, the
absorbance of the residual DPPH radicals was measured at 519 nm using the UV‐vis
spectrophotometer. The DPPH radical scavenging activity of each compound (%) was calculated
Scavenging activity = (1 − Acompound/AControl) * 100, where Acompound and Acontrol the absorbance values
of each tested compound (or BHT) and the negative control, respectively. The half maximal
inhibitory concentration (IC50) for each compound in mg/mL was deduced by graphing the dose-
response curve relating the scavenging activity (%) to the compound concentration. Data points
represent the mean ± standard deviation (SD) of three independent determinations.

[3] = Cell viability, LDH release assay, normal HUVECs; details: human, normal HUVECs, Mean % of viable cells ± SD, HUVEC
Method: (§1) The studied compounds were also screened for their cytotoxic effects on HCT-116 and LoVo colon carcinoma cells, as well as normal HUVECs, using the standard LDH assay at a concentration of 100 µg/mL.
(§2) The antiproliferative activities of the newly synthesized compounds 3a–e, 8, 9a–c, 13, 14, 17, 18a–h, 20, 22, 23 and 25 were examined on human colon HCT-116 and LoVo cell lines as well as HUVEC (American Type Culture Collection, Manassas, VA, USA). […]
medium served used as negative and positive controls, respectively. Percentages of viable cells […]
were calculated based on relative optical density (OD) values (at 550 nm) for compound-treated […]
wells (final concentration of 100 μg/mL), compared to the negative control, and expressed as mean value (%) ± SD from two replicates. Graphing dose-response curves representing the compound […]
concentration versus the percentages of viable cells was also conducted to deduce the half - […]
Additionally, the safety profiles of the studied compounds were assessed against normal cells […]
(HUVECs) at final concentration of 100 μg/mL . HUVECs were grown in Dulbecco’s Modified Eagle’s Medium supplemented with 10% FBS, 2 mM glutamine (Sigma Aldrich), 100 units/mL penicillin and […] streptomycin (Life Technologies; Paisley, UK). […]

[4] = system: LoVo colon carcinoma cells; test: Cell viability, LDH release assay, LoVo; details: Homo sapiens, LoVo, 48 h; for viability at 100 µg/mL: read-out: Mean % of viable cells ± SD, LoVo, 100 µg/mL, 48 h, LDH release assay; for IC50: read-out: Mean IC50 Values in µM ± SD, LoVo cells
Method: as §1, §2
(§3) S3.2.4. Cell culture and viability assay.
(§4) The cytotoxic activities of the newly synthesized compounds (3a-e, 8, 9a-c, 13, 14, 17, 18a-h, 20, 22,
(§5) 23, and 25) were examined on human colon cancer cell lines HCT-116 and Lovo (American Type
(§6) Culture Collection, USA). Various concentrations (50, 100, 200, and 400 μg/mL) of test compounds
(§7) were prepared in Dulbecco’s Modified Eagles Medium (PAN-Biotech, Barcelona, Spain),

PDK-1 = PDK-1 (Homo sapiens, UniProt Q15118); test: In vitro PDK-1 inhibition assay (Kinase-Glo luminescent kinase kit); format: biochemical; details: for inhibition at 100 µg/mL: three replicates, read-out: Mean Inhibition Percent ± SD, PDK-1
Chain of PDK-1 (Q15118 29-436): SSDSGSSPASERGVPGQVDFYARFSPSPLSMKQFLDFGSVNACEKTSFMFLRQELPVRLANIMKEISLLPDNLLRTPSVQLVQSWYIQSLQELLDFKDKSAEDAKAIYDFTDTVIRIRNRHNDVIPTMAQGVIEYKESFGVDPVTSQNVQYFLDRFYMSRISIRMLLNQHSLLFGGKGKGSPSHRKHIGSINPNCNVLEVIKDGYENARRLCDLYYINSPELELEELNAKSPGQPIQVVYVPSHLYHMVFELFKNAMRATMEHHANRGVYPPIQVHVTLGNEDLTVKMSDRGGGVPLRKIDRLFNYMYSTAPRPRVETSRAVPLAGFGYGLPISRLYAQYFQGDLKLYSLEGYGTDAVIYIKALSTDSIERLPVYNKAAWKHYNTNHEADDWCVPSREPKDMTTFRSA
Method: Principally, the PDK-1 inhibitory activities were evaluated using the non-radioactive Kinase-Glo™ Luminescent Kinase Kit (Promega Corporation, Madison, WI, USA) following the instructions of the manufacturer.
S3.2.2. In vitro PDK-1 inhibition assay.
The PDK-1 inhibitory activities of the test compounds were evaluated using the non-radioactive
Kinase-Glo™ Luminescent Kinase kit (Promega Corporation, Madison, WI, USA), following the
manufacturer’s protocol. Briefly, 5 μL of assay buffer—containing 10 × 250 mM Tris-HCl, 50 mM
MgCl2, 5 mM ethyleneglycol-bis(β-aminoethylether)-N,N,N′,N′-tetraacetic acid (EGTA), 10 mM
ethylenedi- aminetetraacetic acid (EDTA), and 10 mM dithiothreitol (DTT)—was added to each
well of a 96-well plate, along with 25 μL of distilled water. Subsequently, 5 μL of each test
compound at various concentrations (50, 100, 200 and 300 μg/mL in 1% DMSO) was added to the
respective wells, except for the two control wells, which received 5 μL of either PBS buffer or 1%
DMSO. Then, 5 μL of pyruvate dehydrogenase E1 (PDH E1) protein (10 μM) and 5 μL of ATP
(10 μM) were added to each well. To initiate phosphorylation, 5 μL of PDK-1 (20 μM) in protein
buffer (1 mM MgCl2, 2000 mM KCl, 40 mM K3PO4) was added to all the wells except the control
wells, which received 5 μL of protein buffer instead. The plate was then mixed thoroughly and
incubated at 37 °C for 30 minutes. After incubation, 50 μL of kinase-Glo® reagent was added to each
well, followed by a 10-minute incubation at room temperature with gentle shaking to stabilize the
luminescent signal. Luminescence was then measured using a microplate reader.
The IC50 value—defined as the concentration of a compound required to reduce luminescence by
50%, compared to untreated control wells—was determined for each compound from the
corresponding dose–response curve generated by plotting PDK-1 inhibition (%) versus compound
concentration. Sodium dichloroacetate (SDA, 1000 μM) was used as a reference PDK-1inhibitor. […]

[5] = system: HCT-116 colon carcinoma cells; test: Cell viability, LDH release assay, HCT-116; details: Homo sapiens, HCT-116, 48 h; for viability at 100 µg/mL: read-out: Mean % of viable cells ± SD, HCT-116, 100 µg/mL, 48 h, LDH release assay; for IC50: read-out: Mean IC50 Values in µM ± SD, HCT-116 cells
Method: as §1, §2, §3, §4, §5, §6, §7

Structure (SMILES)	inhibition at 100 µg/mL [1] [%]	IC50 [2] [mM]	viability at 48 h, 100 µg/mL [3] [%]	viability at 100 µg/mL [4] [%]	inhibition at 100 µg/mL (PDK-1) [%]	viability at 100 µg/mL [5] [%]	IC50 [4] [µM]	IC50 [5] [µM]	IC50 ([1]; three independent experiments, read-out: Mean IC50 µM ± SD, LDHA) [µM]	IC50 (PDK-1; three independent experiments, read-out: Mean IC50 µM ± SD, PDK-1) [µM]
COc1cc2nc(C)n(/N=C/c3ccc(C(F)(F)F)cc3)c(=O)c2cc1OC [Compound 18c, (E)-6,7-Dimethoxy-2-methyl-3-((4-(trifluoromethyl)benzylidene)amino)quinazolin-4(3H)-one]	21.1 ± 0.99	0.606 ± 0.015	91.3 ± 2.08	63 ± 3	44.7 ± 1.53	71.3 ± 6.51				
Oc1ccc2ccccc2c1/C=N/c1ncnc2sc3c(c12)CCCC3 [Compound 3e, (E)-1-(((5,6,7,8-Tetrahydrobenzo[4,5]thieno[2,3-d]pyrimidin-4-yl)imino)methyl) naphthalene-2-ol]	28.3 ± 1.84	0.89 ± 0.039	96.7 ± 1.16	62.3 ± 2.52	31.2 ± 3.18	57 ± 1.73				
COc1cc(/C=C(\NC(=O)c2ccccc2)C(=O)NNC(=S)Nc2ccccc2)ccc1O [Compound 23, N-(1-(4-Hydroxy-3-methoxyphenyl)-3-oxo-3-(2-(phenylcarbamothionyl)hydrazinyl)prop-1-en-2-yl)benzamide]	34.4 ± 3.32	1.21 ± 0.03	80 ± 1.92	57.5 ± 2.12	11 ± 1.41	23 ± 2.83	444 ± 9.17	215.4 ± 1.25		
COc1cc(OC)c(/C=N/n2c(C)nc3cc(OC)c(OC)cc3c2=O)c(OC)c1 [Compound 18a, (E)-6,7-Dimethoxy-2-methyl-3-((2,4,6-trimethoxybenzylidene)amino)quinazolin-4(3H)-one]	16.6 ± 0.78	1.38 ± 0.039	85 ± 1	48.3 ± 2.83	66.7 ± 1.53	40.7 ± 4.16	132 ± 7.4	210 ± 2.42		
COc1cc2nc(C)n(-c3ccc(-c4nc5ccccc5s4)cc3)c(=O)c2cc1OC [Compound 13, 3-(4-(Benzo[d]thiazol-2-yl)phenyl)-6,7-dimethoxy-2-methylquinazolin-4(3H)-one]	40.2 ± 3.18	1.82 ± 0.188	84 ± 2.33	86.5 ± 2.12	40.5 ± 2.76	71.5 ± 2.12				
CCOC(=O)c1sc(NC(=O)/C(=C/c2ccc(OC(C)=O)c(OC)c2)NC(=O)c2ccccc2)nc1C [Compound 20, Ethyl (Z)-2-(3-(4-Acetoxy-3-methoxyphenyl)-2-benzamido-acrylamido)-4-methylthiazole-5-carboxylate]	16.9 ± 1.27	0.745 ± 0.027	73 ± 2.75	51 ± 2.83	28.2 ± 1.06	49 ± 2.83				
Cc1nc2ccc(F)cc2c(=O)n1/N=C/c1cccs1 [Compound 18h, (E)-6-Fluoro-2-methyl-3-((thiophen-2-ylmethylene)amino)quinazolin-4(3H)-one]	18.9 ± 1.77	0.379 ± 0.004	78 ± 2	33 ± 4.24	37 ± 3.61	37 ± 2	479 ± 19.2	498 ± 12.6		
COc1cc2nc(C)n(C3CCCCC3)c(=O)c2cc1OC [Compound 14, 3-Cyclohexyl-6,7-dimethoxy-2-methylquinazolin-4(3H)-one]	37 ± 2.83	0.327 ± 0.007	95 ± 1.82	13 ± 1.14	80.5 ± 4.95	12.5 ± 0.71	292.1 ± 1.17	293 ± 5.38	378 ± 3.98	192 ± 5.57
CCOC(=O)c1sc(/N=C/c2cc(Br)c(O)c(OC)c2)nc1C [Compound 9a, Ethyl (E)-2-((3-bromo-4-hydroxy-5-methoxybenzylidene)amino)-4-methyl thiazole-5-carboxylate]	40.5 ± 2.19	1.55 ± 0.035	70.3 ± 1.53	65.3 ± 3.54	26.9 ± 2.62	72 ± 2.65				
CCOC(=O)c1sc(/N=C/c2cc(OC)c(OC)c(OC)c2)nc1C [Compound 9b, Ethyl(E)-4-methyl-2-((3,4,5-trimethoxybenzylidene)amino)thiazole-5-carboxylate]	33.4 ± 1.98	1.81 ± 0.115	81.7 ± 2.52	60.3 ± 2.83	30.1 ± 1.56	54 ± 4.58				
